Experimental data as given in patent publication US20240409582A1, “DESIGN AND CHARACTERIZATION OF INHIBITORY PEPTIDES (IPEPS) DERIVED FROM OF MIEN 1 PROTEIN SEQUENCE” (priority 2022, published 2024).
Entries after “also recorded” stand apart in the source; their conditions may differ.

Tests used:
MDA-MB-231 cells [1] = assay: Transwell invasion assay; format: cell-based, human; settings: MDA-MB-231, dose-dependent
Protocol: Transwell Invasion Assay: The capacity of human breast cancer MDA-MB-231 cells to pass through a polyethylene terephthalate membrane (6.4 mm diameter; 8 µm pore size) was measured using transwell chambers (Corning Life Sciences) in 24-well tissue culture plates. The MDA-MB-231 were pre-treated with the increasing concentrations of each peptide for 24 h in a 0.1% FBS containing DMEM media. Next day, cells were dislodged by trypsin and 40,000 cells/well were resuspended in a serum-free DMEM containing the second treatment of peptides and were added to the upper chamber, and 10% FBS containing media was added to the bottom chambers. After incubation for another 24 h, non-invasive cells on the upper surface of the membrane were carefully removed with a cotton swab; cells were fixed in 4% paraformaldehyde solution (Affymetrix USB) for 15 minutes followed by a PBS wash; the membrane insert was then fixed with ice-cold methanol for 20 minutes followed by staining with 0.25% crystal violet. The numbers of invaded cells were counted in random fields in Image J, and results were expressed as an average number of invaded cells compared with control.

[2] = tested on: phosphorylated cofilin (inactive cofilin); assay: Western blot, phosphorylated cofilin; format: cell-based, human; settings: whole cell lysates of MDA-MB-231 and DU-145 cells, 48 h
Protocol: (§1) Western blot analysis: MDA-MB-231 cells and DU-145 cells were treated with all the test peptides for 48 h. Cell lysates were prepared, and cellular protein was extracted using RIPA lysis buffer (Millipore). […] After blocking with 5% bovine serum albumin, the membrane was incubated with the primary antibodies specific for various proteins at 4° C. overnight. After primary antibody incubation, membrane was washed thrice in TBS containing 0.1% Tween-20 for 5 min each and then incubated with appropriate HRP-conjugated secondary antibody. The immunoreactive protein bands were visualized by enhanced chemiluminescence (ECL) on Alpha Innotech chemiluminescent detection system.

[3] = tested on: MDA-MB-231 orthotopic tumors; assay: Orthotopic breast cancer model in athymic nude mice; format: in vivo; settings: for tumor growth: 30 mg/kg peritumoral every alternate day, 30 days; for decrease of tumor volume: 30 mg/kg peritumoral on alternate days, vs control
Protocol: Orthotropic Breast Cancer Models in Mice: All in vivo experiments were conducted on 6-8-week-old athymic nude mice (Charles River). MDA-M13-231 (1.5×10^6) cells were suspended in 50% Matrigel in DMEM high glucose (vol/vol) on ice for mammary fat pad injection. The control group received the same volume of matrigel (Corning Cat #356234) and media but no cells. […] Tumor volume was measured using a digital Vernier caliper on alternate days. The tumor volumes (mm3) were calculated using the following formula V=(W2×L)/2 (V, tumor volume: W, tumor width; L, tumor length). Mice were euthanized when rumors in the control group reached˜10% of body weight. At the end of the experiment, all animals were weighed, euthanized, and liver, lung, spleen, kidney brain, and tumors were harvested. The weights of tumors and organs were recorded.

MDA-MB-231 cells [4] = assay: Wound healing assay; format: cell-based, human; settings: MDA-MB-231, dose-dependent, sub-IC50 concentrations, 18 h
Protocol: Wound healing assay: The wound-healing assay on highly metastatic MDA-MB-231 cells was performed to check the anti-migratory activity of the peptides. MDA-MB-231 cells were plated in a six-well tissue culture plate to form a sub-confluent cell monolayer. The monolayer was scraped with a sterile 200 μL pipette tip in the middle of the culture well to produce equal-sized wounds. Cell debris was removed and the scratched cell monolayer was supplemented with fresh media containing sub-IC 50 concentrations of MIEN1-derived peptide and its analogs. Wound areas were measured by ImageJ software after 18 h and were compared to control.

[5] = tested on: EMT genes (E-cadherin, N-Cadherin, SLUG, SNAIL, MMP-9, Zeb-1) in DU-145 prostate cancer cells; assay: RT-qPCR of EMT genes in DU-145 cells; format: cell-based, human; settings: DU-145, qPCR
Protocol: RT-qPCR Method: The changes in the mRNA levels of various genes in response to the peptide treatment in DU-145 cells were examined. Briefly, total RNA was purified using the TRIzol reagent (Invitrogen) according to the manufacturer's instructions. 1 μg of total RNA was reverse transcribed into cDNA using the Superscript-III First-Strand Synthesis kit (Invitrogen) following the manufacturer's protocol. RT-qPCR was performed with the SYBR Green Master Mix (Invitrogen) in a Realplex2 Mastercycler ep gradient S thermal cycler (Eppendorf). The PCR program followed for all the primers was an activation at 95° C. for 15 min, followed by 40 cycles of 95° C. for 30 sec, 54° C. for 1 min, and 72° C. for 45 sec. The reaction was finally put to hold at 4 C. The primers were synthesized by Integrated DNA Technologies (Coralville, IA and are described in Table 2. 18S was used as the reference genes for the mRNA levels. Fold-expression was calculated according to the ΔΔCt method.

[6] = tested on: phosphorylation of src at tyrosine 416; assay: Western blot, phosphorylation of src; format: cell-based, human; settings: MDA-MB-231, 48 h
Protocol: as §1

[7] = tested on: focal adhesion kinase (FAK) phosphorylation at tyrosine 925; assay: Western blot, phosphorylation of FAK; format: cell-based, human; settings: MDA-MB-231 cell lysates, 48 h
Protocol: as §1

MDA-MB-231 cells [8] = assay: RNA-seq transcriptome of MDA-MB-231 cells after peptide treatment; format: cell-based, human; settings: MDA-MB-231, RNA-seq
Protocol: RNeasy Mini Kit (Cat #74106, Qiagen,) was used for RNA isolation and all procedures were performed according to the manufacturer's specification. The purification included 15 minutes of in-column DNase I (Cat #79254, Qiagen,) treatment. […] The quality was controlled using Agilent Tapestation and Qubit 4 fluorometer. Sequencing was on an illumina NextSeq 550 system as per the recommended protocol. Raw sequencing files were adapter trimmed and quality filtered using fastp. The reads were mapped to hg38 reference genome using Hisat2. Differential gene expression analysis was performed using Deseq2.

| Substance | number of invaded cells (MDA-MB-231 cells [1]) | phosphorylated cofilin [2] | tumor growth [3] | decrease of tumor volume [3] [%] | response as per RECIST ([3]; 30 mg/kg, human tumor equivalent) | number of migrated cells in the wound healing assay (MDA-MB-231 cells [4]) | gene expression of SLUG, SNAIL, MMP 9, N-Cadherin and Zeb-1 [5] | gene expression of epithelial marker E-Cadherin [5] | phosphorylation of src at tyrosine 416 [6] | phosphorylation of src at tyrosine 416 ([6]; listed as LA31K) | phosphorylation of FAK at tyrosine 925 [7] | phosphorylation of FAK at tyrosine 925 ([7]; listed as LA31K) | changes in the transcriptome (MDA-MB-231 cells [8]) |
| --- | --- | --- | --- | --- | --- | --- | --- | --- | --- | --- | --- | --- | --- |
| LAIAVK [LA3IK] | considerable decrease in the number of invaded cells | accumulation of phosphorylated cofilin | decreased tumor growth significantly | 75.39 | partial response | significantly reduced number of migrated cells | significant decrease | concomitant increase | inhibited | marked inhibition | inhibited | marked inhibition | inhibited genes responsible for migration and cancer progression |
| RPPCVIL [RP-7] | considerable decrease in the number of invaded cells | accumulation of phosphorylated cofilin | decreased tumor growth significantly | 37.43 |  | significantly reduced number of migrated cells | significant decrease | concomitant increase | inhibited; also recorded: marked inhibition |  | inhibited; also recorded: marked inhibition |  |  |
